The compounds below were run on HCV genotype 1b replicon in Huh 7 cells (assay: HCV replicon assay (1b_Huh-Luc/Neo-ET cell line, luciferase readout)). Details: Hepatitis C virus, Huh-7; HCV 1b replicon; read-out: Inhibition of HCV genotype 1b.
Format: cell-based
Summary of the method: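 Huh 7 cells carrying a bicistronic genotype 1b luciferase replicon were treated with compound in triplicate the day after plating and incubated 72 h. Luciferase activity expressed as % of untreated control; EC50 from a four-parameter logistic fit, repeated several times.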
With `COC(=O)N[C@H](C(=O)N1CCC[C@H]1C(=O)NCc1ccc(-c2ccc3cc(-c4cnc([C@@H]5CCCN5C(=O)[C@@H](NC(=O)OC)[C@@H](C)OC)[nH]4)ccc3c2)cc1)[C@@H](C)OC` [compound 568] the EC50 was 10 to 999 nM.
`COC(=O)N[C@H](C(=O)N1CCC[C@H]1c1ncc(-c2cnc(-c3ccc4cc(-c5cnc([C@@H]6CCCN6C(=O)[C@@H](NC(=O)OC)C(C)C)[nH]5)ccc4c3)nc2)[nH]1)C(C)C` [compound 476] was tested, and the EC50 was under 1 nM.
In the case of `CC[C@H](C)[C@H](NC(=O)OC)C(=O)N1CCC[C@H]1c1nc2ccc(-c3ccc4cc(-c5cnc([C@@H]6CCCN6C(=O)[C@@H](NC(=O)OC)[C@@H](C)OC)[nH]5)ccc4c3)nc2[nH]1` [compound 534], the EC50 is reported as under 1 nM.
`COC(=O)N[C@@H](C(=O)N1CCC[C@H]1c1ncc(-c2ccc3nc(-c4ccc5nc([C@@H]6CCCN6C(=O)[C@H](NC(=O)OC)c6ccccc6)[nH]c5c4)ccc3c2)[nH]1)c1ccccc1` [compound 507] was tested, and the EC50 was under 1 nM.
`COC(=O)N[C@H](C(=O)N1CCC[C@H]1CNC(=O)c1cnc2cc(-c3ccc4c(c3)CCc3nc([C@@H]5CCCN5C(=O)[C@@H](NC(=O)OC)C(C)C)[nH]c3-4)ccc2c1)C(C)C` [compound 549] showed an EC50 of 1 to 9.9 nM.
`COC(=O)N[C@H](C(=O)N1CCC[C@H]1c1nc2ccc(-c3ccc4cc(-c5cnc([C@@H]6CCCN6C(=O)[C@@H](NC(=O)OC)[C@@H](C)OC)[nH]5)ccc4c3)cc2[nH]1)C1CCCC1` [compound 528] showed an EC50 of under 1 nM.
With `COC(=O)N[C@H](C(=O)N1CCC[C@H]1c1ncc(-c2ccc3nc(-c4ccc(-c5cnc([C@@H]6CCCN6C(=O)[C@H](NC(=O)OC6CCOCC6)c6ccccc6)[nH]5)c(F)c4)ccc3c2)[nH]1)C(C)C` [compound 452] the EC50 was under 1 nM.
`COC[C@H](NC(=O)OC)C(=O)N1CCC[C@H]1c1ncc(-c2ccc3cc(-c4ccc(-c5cnc([C@@H]6CCCN6C(=O)[C@H](NC(=O)OC)c6ccccc6)[nH]5)nn4)ccc3c2)[nH]1` [compound 477] showed an EC50 of under 1 nM.
`COC(=O)N[C@H](C(=O)N1CCC[C@H]1c1ncc(-c2ccc(-c3ccc4cc(-c5cnc([C@@H]6CCCN6C(=O)[C@@H](NC(=O)OC)[C@@H](C)OC)[nH]5)ccc4c3)cc2)[nH]1)C(C)C` [compound 481] showed an EC50 of under 1 nM.
`COC[C@H](NC(=O)OC)C(=O)N1CCC[C@H]1c1ncc(-c2ccc3cc(-c4ccc(-c5cnc([C@@H]6CCCN6C(=O)[C@H](NC(=O)OC)c6cccs6)[nH]5)cc4)ccc3c2)[nH]1` [compound 496] was tested, and the EC50 was under 1 nM.
Compound `COC[C@H](NC(=O)OC)C(=O)N1CCC[C@H]1c1ncc(-c2ccc3cc(-c4ccc(-c5cnc([C@@H]6CCCN6C(=O)[C@H](NC(=O)OC)c6ccsc6)[nH]5)cc4)ccc3c2)[nH]1` [compound 465] has an EC50 of under 1 nM.
`COC(=O)N[C@H](C(=O)N1CCC[C@H]1C(=O)NCc1ccc(-c2ccc3cc(-c4cnc([C@@H]5CCCN5C(=O)[C@@H](NC(=O)OC)C5CCOCC5)[nH]4)ccc3c2)cc1)C1CCOCC1` [compound 569] showed an EC50 of under 1 nM.

Same assay, conditions: Hepatitis C virus; Table 1; genotype 1b replicon, Huh 7 cells, 72 h, luciferase; read-out: Inhibition of HCV genotype 1b
In the case of `COC(=O)N[C@H](C(=O)N1CCC[C@H]1c1nc(-c2cnc3cc(-c4ccc(-c5cnc([C@@H]6CCCN6C(=O)[C@H](NC(=O)OC)c6ccccc6)[nH]5)cc4)ccc3c2)c[nH]1)C1CCOCC1` [compound 71], the EC50 is reported as under 1 nM.
For `COC(=O)N[C@H](C(=O)N1CCC[C@H]1c1nc2ccc(-c3ccc4cc(-c5cnc([C@@H]6CCCN6C(=O)[C@H](NC(=O)OC)c6ccccc6)[nH]5)ccc4c3)cc2[nH]1)C(C)C` [compound 179], the EC50 was under 1 nM.
For `COC(=O)N[C@H](C(=O)N1CCC[C@H]1c1ncc(-c2ccc3cc(-c4ccc5nc([C@@H]6CCCN6C(=O)[C@@H](c6ccccc6)N(C)C)[nH]c5c4)ccc3c2)[nH]1)C(C)C` [compound 177], the EC50 was under 1 nM.
`COC(=O)N[C@H](C(=O)N1CCC[C@H]1c1ncc(-c2cnc3cc(-c4ccc5nc([C@@H]6CCCN6C(=O)[C@@H](NC(=O)OC)C(C)C)[nH]c5c4)ccc3c2)[nH]1)C(C)C` [compound 187] gave an EC50 of under 1 nM.
`COC(=O)N[C@H](C(=O)N1CCC[C@H]1c1ncc(-c2ccc3cc(-c4ccc(-c5cnc([C@@H]6CCCN6C(=O)[C@H](NC(=O)OC6CCOCC6)c6ccccc6)[nH]5)c(F)c4)ncc3c2)[nH]1)C1CCOCC1` [compound 154] gave an EC50 of under 1 nM.
`CCC(CC)[C@H](NC(=O)OC)C(=O)N1CCC[C@H]1c1ncc(-c2ccc3cc(-c4ccc5nc([C@@H]6CCCN6C(=O)[C@@H](NC(=O)OC)C(CC)CC)[nH]c5c4)ccc3c2)[nH]1` [compound 227] gave an EC50 of under 1 nM.
In the case of `COC(=O)N[C@H](C(=O)N1CCC[C@H]1c1ncc(-c2ccc(-c3nc4cc(-c5cnc([C@@H]6CCCN6C(=O)[C@@H](NC(=O)OC)C(C)C)[nH]5)ccc4o3)cc2)[nH]1)C(C)C` [compound 236], the EC50 is reported as under 1 nM.
In the case of `COC(=O)N[C@H](C(=O)N1CCC[C@H]1c1nc2ccc(-c3ccc4cc(-c5cnc([C@@H]6CCCN6C(=O)[C@@H](NC(=O)OC)C6CCOCC6)[nH]5)cnc4c3)cc2[nH]1)C(C)C` [compound 191], the EC50 is reported as under 1 nM.
Compound `COC(=O)N[C@H](C(=O)N1CCC[C@H]1c1nc(-c2ccc3cc(-c4ccc(-c5cnc([C@@H]6CCCN6C(=O)[C@@H](NC(=O)OC)C(C)C)[nH]5)nc4)ccc3c2)c[nH]1)C(C)C` [compound 83] has an EC50 of under 1 nM.
With `COC(=O)N[C@H](C(=O)N1CCC[C@H]1c1ncc(-c2ccc(-c3ccc4cc(-c5c[nH]c([C@@H]6CCCN6C(=O)[C@H](NC(=O)OC(C)(C)C)c6ccccc6)n5)ccc4n3)cn2)[nH]1)C(C)C` [compound 70] the EC50 was under 1 nM.
For `COC(=O)N[C@H](C(=O)N1CCC[C@H]1c1ncc(-c2ccc(-c3ccc4cc(-c5cnc([C@@H]6CCCN6C(=O)[C@H](NC(=O)OC6CCOCC6)c6ccccc6)[nH]5)ccc4n3)c(F)c2)[nH]1)C(C)C` [compound 121], the EC50 was under 1 nM.
For `c1cc2nc(C34CCC(c5cnc([C@@H]6CCCN6)[nH]5)(CC3)CC4)ccc2cc1-c1c[nH]c([C@@H]2CCCN2)n1` [compound 267], the EC50 was over 1000 nM.
`COC(=O)N[C@H](C(=O)N1CCC[C@H]1c1nc(-c2ccc3cc(-c4ccc(-c5cnc([C@@H]6CCCN6C(=O)[C@H](NC(=O)OC)c6ccccc6)[nH]5)cc4)ncc3c2)c[nH]1)C1CCOCC1` [compound 100] gave an EC50 of under 1 nM.
`COC(=O)N[C@H](C(=O)N1CCC[C@H]1c1ncc(-c2ccc3ccc(C45CCC(c6cnc([C@@H]7CCCN7C(=O)[C@@H](NC(=O)OC)C(C)C)[nH]6)(CC4)CC5)cc3c2)[nH]1)C(C)C` [compound 261] showed an EC50 of 1 to 9.9 nM.
`COC(=O)N[C@H](C(=O)N1CCC[C@H]1c1ncc(-c2ccc3cc(-c4ccc(-c5cnc([C@@H]6CCCN6C(=O)[C@@H](NC(=O)OC)C6CCOCC6)[nH]5)cc4F)ncc3c2)[nH]1)C(C)C` [compound 151] was tested, and the EC50 was under 1 nM.
`COC(=O)N[C@H](C(=O)N1CCC[C@H]1c1ncc(-c2ccc(-c3ccc4cc(-c5cnc([C@@H]6CCCN6C(=O)[C@@H](NC(=O)OC)C6CCCC6)[nH]5)ccc4c3)cc2)[nH]1)C1CCCC1` [compound 172] was tested, and the EC50 was under 1 nM.
Compound `COC(=O)N[C@H](C(=O)N1CCC[C@H]1c1ncc(-c2ccc(-c3ccc4cc(-c5c[nH]c([C@@H]6CCCN6C(=O)[C@H](NC(=O)OC)c6ccccc6)n5)cnc4c3)cn2)[nH]1)C(C)C` [compound 94] has an EC50 of under 1 nM.
With `COC(=O)N[C@H](C(=O)N1CCC[C@H]1c1nc2ccc(-c3ccc4cc(-c5ccc6nc([C@@H]7CCCN7C(=O)[C@@H](NC(=O)OC)C(C)C)[nH]c6c5)ncc4c3)cc2[nH]1)C(C)C` [compound 281] the EC50 was under 1 nM.
With `COC(=O)N[C@H](C(=O)N1CCC[C@H]1c1ncc(-c2ccc(-c3ccc4cc(-c5cnc([C@@H]6CCCN6C(=O)[C@@H](NC(=O)OC)C6CCOCC6)[nH]5)ccc4n3)c(F)c2)[nH]1)C(C)C` [compound 120] the EC50 was under 1 nM.
Work on `CC(C)(C)OC(=O)N1CCCC1c1ncc(-c2ccc(-c3nc4cc(-c5cnc([C@@H]6CCCN6C(=O)OCc6ccccc6)[nH]5)ccc4s3)cc2)[nH]1` (some centres unmarked) [compound 250] yielded an EC50 of 10 to 999 nM.
`COC(=O)N[C@H](C(=O)N1CCC[C@H]1c1ncc(-c2ccc(-c3ccc4cc(-c5c[nH]c([C@@H]6CCCN6C(=O)[C@@H](NC(=O)OC)C6CCOCC6)n5)ccc4c3)cc2)[nH]1)C(C)C` [compound 47] gave an EC50 of under 1 nM.
`COC(=O)N[C@H](C(=O)N1CCC[C@H]1c1ncc(-c2ccc(-c3ccc4cc(-c5c[nH]c([C@@H]6CCCN6C(=O)[C@H](NC(=O)OC)c6ccccc6)n5)cnc4c3)nc2)[nH]1)C(C)C` [compound 60] gave an EC50 of under 1 nM.
Work on `COC(=O)N[C@H](C(=O)N1CCC[C@H]1c1nc(-c2ccc3nc(N4CCC(c5cnc([C@@H]6CCCN6C(=O)[C@@H](NC(=O)OC)C6CC6)[nH]5)CC4)ccc3c2)c[nH]1)C1CC1` [compound 274] yielded an EC50 of 1 to 9.9 nM.
Work on `COC(=O)N[C@H](C(=O)N1CCC[C@H]1c1ncc(-c2ccc3cc(-c4ccc5nc([C@@H]6CCCN6C(=O)[C@@H](NC(=O)OC)[C@@H](C)OC)[nH]c5c4)ccc3c2)[nH]1)[C@@H](C)OC` [compound 176] yielded an EC50 of under 1 nM.

Same assay, conditions: Hepatitis C virus; Table 2; genotype 1b replicon, Huh 7 cells, 72 h, luciferase; read-out: Inhibition of HCV genotype 1b
Work on `COC[C@H](NC(=O)OC)C(=O)N1CCC[C@H]1c1ncc(-c2ccc3cc(-c4ccc5nc([C@@H]6CCCN6C(=O)[C@H](COC)NC(=O)OC)[nH]c5c4)ccc3c2)[nH]1` [345-1] yielded an EC50 of under 1 nM.
`CC[C@@H](C)[C@H](NC(=O)OC)C(=O)N1CCC[C@H]1c1ncc(-c2ccc3nc(-c4ccc5nc([C@@H]6CCCN6C(=O)[C@@H](NC(=O)OC)[C@H](C)CC)[nH]c5c4)ccc3c2)[nH]1` [compound 384] showed an EC50 of under 1 nM.
Work on `COC(=O)N[C@H](C(=O)N[C@@H](C)c1ncc(-c2ccc3cc(-c4ccc(-c5cnc([C@@H]6CCCN6C(=O)[C@@H](NC(=O)OC)C(C)C)[nH]5)cc4)ccc3c2)[nH]1)C(C)C` [compound 304] yielded an EC50 of under 1 nM.
With `COC(=O)N[C@@H](C)C(=O)N1CCC[C@H]1c1ncc(-c2ccc3cc(-c4ccc(-c5cnc([C@@H]6CCCN6C(=O)[C@H](NC(=O)OC)c6ccccc6)[nH]5)cc4)ccc3c2)[nH]1` [compound 319] the EC50 was under 1 nM.
`COC(=O)N[C@H](C(=O)N1CCC[C@H]1c1ncc(-c2ccc3cc(-c4ccc(-c5cnc([C@@H]6COCCN6C(=O)[C@H](NC(=O)OC)c6ccccc6)[nH]5)cc4)ccc3c2)[nH]1)[C@@H](C)OC` [compound 323] gave an EC50 of under 1 nM.
